From US7291732B2, “Isomeric fused pyrrolocarbazoles and isoindolones” (Cephalon, Inc., priority 1999, dated 2007)

Molecular target: T1, baculovirus-expressed PDGFβ receptor kinase domain (Homo sapiens, UniProt P09619)
T1 construct: baculovirus-expressed PDGFβ receptor kinase domain; made in house
Assay: PDGF receptor kinase activity inhibition, ELISA assay
Format: biochemical
Conditions: 1 μM compound; 20 μM ATP; value printed in parentheses
Protocol: Isomeric fused pyrrolocarbazole and isoindolone compounds were examined for their inhibitory effects on the kinase activity of baculovirus-expressed PDGFβ receptor kinase domain using the trkA kinase ELISA described above. Assays were performed in substrate (PLC-γ/GST)-coated 96-well microtiter plates. Each 100-μl reaction mixture contained 50 mM HEPES, pH 7.4, 20 μM ATP, 10 mM MnCl2, 0.1% BSA, 2% DMSO, and various concentrations of inhibitor. The reaction was initiated by addition of prephosphorylated recombinant human enzyme (10 ng/ml PDGFβ) and allowed to proceed for 15 minutes at 37° C. The prephosphorylated enzyme was prepared prior to use by incubation of the kinase in buffer containing 20 μM ATP and 10 mM MnCl2 for 1 hour at 4 C. Detection of phosphorylated product was done by adding horseradish peroxidase (HRP)-conjugated anti-phosphotyrosine antibody (UBI). The HRP substrate solution containing 3,3′-5,5′-tetramethylbenzidine and hydrogen peroxide was later added and the plates were incubated for 10 minutes at room temperature. The reaction was quenched with acid and the resulting absorbance was read at 450 nm using a Microplate Bio-kinetics Reader (Bio-Tek Instrument EL 312e). Inhibition data were analyzed using the sigmoidal dose-response (variable slope) equation in GraphPad Prism.

T1 sequence (P09619 600-962 limits assumed): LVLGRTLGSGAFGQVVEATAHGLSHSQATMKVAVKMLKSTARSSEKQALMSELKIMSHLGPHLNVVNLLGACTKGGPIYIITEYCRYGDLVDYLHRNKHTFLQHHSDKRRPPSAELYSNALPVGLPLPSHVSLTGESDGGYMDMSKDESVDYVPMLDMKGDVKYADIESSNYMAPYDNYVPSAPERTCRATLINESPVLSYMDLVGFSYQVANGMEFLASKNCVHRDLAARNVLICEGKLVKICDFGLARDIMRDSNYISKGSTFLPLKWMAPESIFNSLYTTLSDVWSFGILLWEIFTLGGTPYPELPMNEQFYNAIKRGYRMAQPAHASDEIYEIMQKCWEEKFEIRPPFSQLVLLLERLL

Structure (SMILES) | PDGFRβ (% inhibition @ 1 μM)
O=C1NCc2c1c1c(c3[nH]c4ccccc4c23)-c2ccccc2C1 [IX-1] | (23) %
O=C1NCc2c1c1c(c3[nH]c4ccccc4c23)-c2ccccc2CC1 [IX-2] | (8) %
O=C1NC(=O)c2c1c1c(c3[nH]c4ccccc4c23)-c2ccccc2CC1 [IV-5] | (26) %

Same assay, conditions: read-out: PDGFRβ (% inhibition @ 1 μM)

Structure (SMILES) | inhibition at 1 µM [%]
O=C1NC(=O)c2c1c1ccc3sccc3c1c1[nH]c3ccccc3c21 [XVII] | 24

Same assay, conditions: read-out: PDGFRβ (% inhibition @ 1 μM); 1 μM compound; 20 μM ATP; value printed in parentheses

Structure (SMILES) | inhibition at 1 µM [%]
Cn1c2ccccc2c2c3c(c4c(c21)-c1ccccc1C4)C(=O)NC3=O [IV-3] | 0
O=C1NC(=O)c2c1c1c(c3[nH]c4ccccc4c23)-c2ccccc2OC1 [IV-11] | 6
O=C1NC(=O)c2c1c1c(c3[nH]c4ccccc4c23)-c2ccccc2C1 [IV-1] | 6
O=C1NC(=O)c2c1c1sc3ccccc3c1c1[nH]c3ccccc3c21 [IV-10] | 11
O=c1[nH]c(=O)c2c1c1c(=O)c3ccccc3c1c1[nH]c3ccccc3c12 [IV-2] | 17
O=C1NC(=O)c2c1c1c(c3[nH]c4ncccc4c23)-c2ccccc2CC1 [XIII] | 10

Molecular target: T2, baculovirus-expressed human trkA cytoplasmic domain (Homo sapiens, UniProt P04629)
T2 construct: baculovirus-expressed human trkA cytoplasmic domain; made in house
T2 sequence (P04629 440-796 limits assumed): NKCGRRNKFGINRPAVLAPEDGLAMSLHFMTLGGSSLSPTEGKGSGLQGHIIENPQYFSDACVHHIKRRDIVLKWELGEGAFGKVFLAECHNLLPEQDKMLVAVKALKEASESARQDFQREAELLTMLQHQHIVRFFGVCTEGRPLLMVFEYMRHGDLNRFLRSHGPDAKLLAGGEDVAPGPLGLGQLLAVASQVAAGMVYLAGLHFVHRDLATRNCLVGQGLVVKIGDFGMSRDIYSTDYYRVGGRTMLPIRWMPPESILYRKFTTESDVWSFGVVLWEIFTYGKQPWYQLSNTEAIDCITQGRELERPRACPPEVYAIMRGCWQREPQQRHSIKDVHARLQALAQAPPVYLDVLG
Assay: trkA tyrosine kinase activity inhibition, ELISA-based assay
Format: biochemical
Conditions: 300 nM compound; 40 μM ATP; value printed in parentheses
Protocol: Selected isomeric fused pyrrolocarbazole and isoindolone compounds were tested for their ability to inhibit the kinase activity of baculovirus-expressed human trkA cytoplasmic domain using an ELISA-based assay as previously described (Angeles et al, Anal. Biochem. 236: 49-55, 1996). Briefly, the 96-well microtiter plate was coated with substrate solution (recombinant human phospholipase C-γl/glutathione S-transferase fusion protein (Rotin et al., EMBO J., II: 559-567, 1992). Inhibition studies were performed in 100 μl assay mixtures containing 50 mM Hepes, pH 7.4, 40 μM ATP, 10 mM MnCl2, 0.1% BSA; 2% DMSO, and various concentrations of inhibitor. The reaction was initiated by addition of trkA kinase and allowed to proceed for 15 minutes at 37° C. An antibody to phosphotyrosine (UBI) was then added, followed by a secondary enzyme-conjugated antibody, alkaline phosphatase-labelled goat anti-mouse IgG (Bio-Rad). The activity of the bound enzyme was measured via an amplified detection system (Gibco-BRL). Inhibition data were analyzed using the sigmoidal dose-response (variable slope) equation in GraphPad Prism.

Structure (SMILES) | trkA (% inhibition @ 300 nM)
O=C1NCc2c1c1c(c3[nH]c4ccccc4c23)-c2ccccc2C1 [IX-1] | (9) %
O=C1NCc2c1c1c(c3[nH]c4ccccc4c23)-c2ccccc2CC1 [IX-2] | (9) %
O=C1NC(=O)c2c1c1c(c3[nH]c4ccccc4c23)-c2ccccc2CC1 [IV-5] | (14) %

Same assay, conditions: read-out: trkA (% inhibition @ 300 nM)

Structure (SMILES) | inhibition at 0.3 µM [%]
O=C1NC(=O)c2c1c1ccc3sccc3c1c1[nH]c3ccccc3c21 [XVII] | 10

Same assay, conditions: read-out: trkA (% inhibition @ 300 nM); 300 nM compound; 40 μM ATP; value printed in parentheses

Structure (SMILES) | inhibition at 0.3 µM [%]
Cn1c2ccccc2c2c3c(c4c(c21)-c1ccccc1C4)C(=O)NC3=O [IV-3] | 18
O=C1NCc2c3c(c4c(c21)c1ccccc1n4CCO)-c1ccccc1CC3 [Compound X-4] | 15
O=C1NC(=O)c2c1c1c(c3[nH]c4ccccc4c23)-c2ccccc2OC1 [IV-11] | 4
O=C1NC(=O)c2c1c1c(c3[nH]c4ccccc4c23)-c2ccccc2C1 [IV-1] | 0
O=C1NC(=O)c2c1c1sc3ccccc3c1c1[nH]c3ccccc3c21 [IV-10] | 6
O=c1[nH]c(=O)c2c1c1c(=O)c3ccccc3c1c1[nH]c3ccccc3c12 [IV-2] | 2

Molecular target: T3, baculovirus-expressed VEGF receptor (human flk-1, KDR, VEGFR2) kinase domain (Homo sapiens, UniProt P35968)
T3 construct: VEGF receptor (human flk-1, KDR, VEGFR2) kinase domain; made in house
T3 sequence (P35968 834-1162 limits assumed): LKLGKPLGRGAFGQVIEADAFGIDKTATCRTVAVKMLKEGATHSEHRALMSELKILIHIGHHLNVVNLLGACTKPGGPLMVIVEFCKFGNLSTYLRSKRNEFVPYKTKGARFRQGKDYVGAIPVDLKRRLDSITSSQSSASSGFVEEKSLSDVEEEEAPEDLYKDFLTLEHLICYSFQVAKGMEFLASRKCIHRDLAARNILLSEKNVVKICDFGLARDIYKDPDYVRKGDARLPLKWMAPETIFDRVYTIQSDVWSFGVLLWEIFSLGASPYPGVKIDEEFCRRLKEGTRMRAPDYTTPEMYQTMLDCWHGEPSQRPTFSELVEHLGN
Assay: VEGF receptor kinase activity inhibition, ELISA assay
Format: biochemical
Conditions: 300 nM compound; 40 μM ATP; value printed in parentheses
Protocol: Isomeric fused pyrrolocarbazole and isoindolone compounds were examined for their inhibitory effects on the kinase activity of baculovirus-expressed VEGF receptor (human flk-1, KDR, VEGFR2) kinase domain using the procedure described for the trkA kinase ELISA assay described above. The kinase reaction mixture, consisting of 50 mM Hepes, pH 7.4, 40 μM ATP, 10 mM MnCl2, 0.1% BSA, 2% DMSO, and various concentrations of inhibitor, was transferred to PLC-γ/GST-coated plates. VEGFR kinase was added and the reaction was allowed to proceed for 15 min at 37° C. Detection of phosphorylated product was accomplished by addition of anti-phosphotyrosine antibody (UBI). A secondary enzyme-conjugated antibody was delivered to capture the antibody-phosphorylated PLC-γ/GST complex. The activity of the bound enzyme was measured via an amplified detection system (Gibco-BRL). Inhibition data were analyzed using the sigmoidal dose-response (variable slope) equation in GraphPad Prism Results are summarized in Table 6.

Structure (SMILES) | VEGFR kinase (% inhibition @ 300 nM)
O=C(NCCCn1c2ccccc2c2c3c(c4c(c21)-c1ccccc1CC4)C(=O)NC3=O)Nc1ccccc1 [IV-27] | (5) %
N#Cc1ccc2c(c1)c1c3c(c4c(c1n2CCCOCc1ccccc1)-c1ccccc1CC4)C(=O)NC3=O [IV-44] | (3) %
O=C1NC(=O)c2c1c1c(c3[nH]c4ccccc4c23)-c2ccccc2C1c1cccs1 (stereo not shown) [IV-16] | (14) %
CC(C)(C)OC(=O)N1CCCC1C(=O)NCCCn1c2ccccc2c2c3c(c4c(c21)-c1ccccc1CC4)C(=O)NC3=O (stereo not shown) [IV-29] | (1) %
CC(C)(C)OC(=O)C=Cc1ccc2[nH]c3c4c(c5c(c3c2c1)C(=O)NC5=O)CCc1ccccc1-4 [IV-36] | (17) %
CCOC(=O)CCn1c2ccccc2c2c3c(c4c(c21)-c1ccccc1CC4)C(=O)NC3=O [IV-21] | (7) %
CS(=O)(=O)NCc1ccc2[nH]c3c4c(c5c(c3c2c1)C(=O)NC5=O)CCc1ccccc1-4 [IV-34] | (54) %
O=C1NC(=O)c2c1c1c(c3[nH]c4ccc(C=Cc5ccccn5)cc4c23)-c2ccccc2CC1 [IV-39] | (8) %
N#CCCn1c2ccccc2c2c3c(c4c(c21)-c1ccccc1CC4)C(=O)NC3=O [IV-19] | (4) %
N#CC=Cc1ccc2[nH]c3c4c(c5c(c3c2c1)C(=O)NC5=O)CCc1ccccc1-4 [IV-43] | (8) %
CS(=O)(=O)N1CCCC1C(=O)NCCCn1c2ccccc2c2c3c(c4c(c21)-c1ccccc1CC4)C(=O)NC3=O (stereo not shown) [IV-31] | (10) %
O=C(O)CCc1ccc2[nH]c3c4c(c5c(c3c2c1)C(=O)NC5=O)CCc1ccccc1-4 [IV-40] | (10) %
CNC(=S)NCc1ccc2[nH]c3c4c(c5c(c3c2c1)C(=O)NC5=O)CCc1ccccc1-4 [IV-35] | 43%
O=C1NC(=O)c2c1c1c(c3[nH]c4ccccc4c23)-c2ccccc2C1C(O)c1ccncc1 (stereo not shown) [IV-18] | (8) %
O=C1NC(=O)c2c1c1c(c3[nH]c4ccccc4c23)-c2ccccc2C1C(O)c1cccnc1 (stereo not shown) [IV-13] | (8) %
O=C1NCc2c1c1c(c3[nH]c4ccccc4c23)-c2ccccc2C1 [IX-1] | (10) %
O=C1NC(=O)c2c1c1c(c3c2c2ccccc2n3CCCO)-c2ccccc2CC1 [IV-42] | (42) %
O=C(O)CCn1c2ccccc2c2c3c(c4c(c21)-c1ccccc1CC4)C(=O)NC3=O [IV-22] | (8) %
COCC1c2ccccc2-c2c1c1c(c3c2[nH]c2ccccc23)C(=O)NC1=O (stereo not shown) [IV-12] | (19) %
O=C1NC(=O)c2c1c1c(c3c2c2ccccc2n3CCCOCc2ccccc2)-c2ccccc2CC1 [IV-41] | (34) %
CS(=O)(=O)NCCCn1c2ccccc2c2c3c(c4c(c21)-c1ccccc1CC4)C(=O)NC3=O [IV-24] | (0) %
CNC(=S)NCCCn1c2ccccc2c2c3c(c4c(c21)-c1ccccc1CC4)C(=O)NC3=O [IV-26] | (10) %
NCCCn1c2ccccc2c2c3c(c4c(c21)-c1ccccc1CC4)C(=O)NC3=O [IV-23] | (0) %
COCCOCC1c2ccccc2-c2c1c1c(c3c2[nH]c2ccccc23)C(=O)NC1=O (stereo not shown) [IV-17] | (3) %
CC(=O)NCCCn1c2ccccc2c2c3c(c4c(c21)-c1ccccc1CC4)C(=O)NC3=O [IV-25] | (0) %
O=C1NC(=O)c2c1c1c(c3[nH]c4ccccc4c23)-c2ccccc2C1CO (stereo not shown) [IV-15] | (7) %
N#CCCCn1c2ccccc2c2c3c(c4c(c21)-c1ccccc1CC4)C(=O)NC3=O [IV-20] | (11) %
CC(C)(C)OC(=O)CCc1ccc2[nH]c3c4c(c5c(c3c2c1)C(=O)NC5=O)CCc1ccccc1-4 [IV-38] | (5) %
O=C1NC(=O)c2c1c1c(c3c2c2ccccc2n3CCCNC(=O)C2CCCN2)-c2ccccc2CC1 (stereo not shown) [IV-30] | (1) %
O=C(O)C=Cc1ccc2[nH]c3c4c(c5c(c3c2c1)C(=O)NC5=O)CCc1ccccc1-4 [IV-37] | (11) %

Same assay, conditions: 40 μM ATP; value printed without parentheses; read-out: VEGFR kinase IC50

Structure (SMILES) | IC50 [µM]
Cn1c2ccccc2c2c3c(c4c(c21)-c1ccccc1C4)C(=O)NC3=O [IV-3] | 0.332
O=C1NCc2c3c(c4c(c21)c1ccccc1n4CCO)-c1ccccc1CC3 [Compound X-4] | 0.138
O=C1NC(=O)c2c1c1c(c3[nH]c4ccccc4c23)-c2ccccc2OC1 [IV-11] | 0.555
CNC(=S)NCc1ccc2[nH]c3c4c(c5c(c3c2c1)C(=O)NC5=O)CCc1ccccc1-4 [IV-35] | 0.316
O=C1NC(=O)c2c1c1c(c3[nH]c4ccccc4c23)-c2ccccc2C1 [IV-1] | 0.071
O=C1NC(=O)c2c1c1sc3ccccc3c1c1[nH]c3ccccc3c21 [IV-10] | 5.33
O=C1NC(=O)c2c1c1ccc3sccc3c1c1[nH]c3ccccc3c21 [XVII] | 0.796
O=C1NCc2c1c1c(c3[nH]c4ccccc4c23)-c2ccccc2CC1 [IX-2] | 8.75
O=c1[nH]c(=O)c2c1c1c(=O)c3ccccc3c1c1[nH]c3ccccc3c12 [IV-2] | 0.87
O=C1NC(=O)c2c1c1c(c3[nH]c4ncccc4c23)-c2ccccc2CC1 [XIII] | 8.39
O=C1NC(=O)c2c1c1c(c3[nH]c4ccccc4c23)-c2ccccc2CC1 [IV-5] | 0.16

Same assay, conditions: read-out: VEGFR kinase (% inhibition @ 300 nM)

Structure (SMILES) | inhibition at 0.3 µM [%]
COc1ccc2[nH]c3c4c(c5c(c3c2c1)C(=O)NC5=O)CCc1ccccc1-4 [IV-6] | 14

Test system: not given
Assay: not given
Conditions: not given

Structure (SMILES) | melting point [°C]
Cn1c2ccccc2c2c3c(c4c(c21)-c1ccccc1C4)C(=O)NC3=O [IV-3] | > 262
O=C1NC(=O)c2c1c1c(c3[nH]c4ccccc4c23)-c2ccccc2C1 [IV-1] | > 300
